Test results as given in PMC9551036, “A selective and orally bioavailable VHL-recruiting PROTAC achieves SMARCA2 degradation in vivo” (Nature Communications, 2022).
Several values for one entry are separate records, joined by “and”; a condition that tells them apart may be missing. Identical values can stand only once. Like-named read-outs stand apart in the source and are kept apart here.

How the values were obtained:
Plasma protein binding = type: in vitro ADME
Method: Binding of compound to plasma proteins was determined by equilibrium dialysis of 3 µmol/L compound in plasma (or plasma dilutions in PBS) against PBS through an 8 kDa molecular-weight cut-off cellulose membrane (RED device, Thermo Fisher) at 37 °C for 5 h. After incubation, aliquots from donor and acceptor compartments were precipitated and the concentrations in the supernatants were determined by quantitative LC-MS/MS. Calibration and quality control samples were prepared using blank plasma and internal standard. The fraction unbound was calculated as ratio of the compound concentration in the acceptor compartment to the concentration in the donor compartment.

[1] = Bidirectional permeability measurement in Caco-2 cells; type: in vitro ADME; settings: human
In short: (§1)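 Caco-2 monolayers grown 14–21 days, preincubated 24 h with medium containing 1 µM compound; bidirectional transport sampled up to 2 h, quantified by LC-MS/MS, ± 5 µM zosuquidar (P-gp inhibitor). Papp,AB and Papp,BA from receiver amount, donor C0, area and time; efflux ratio = Papp,BA/Papp,AB (duplicate means). TEER checked per plate.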

P-gp = assay: as above; type: in vitro ADME; settings: human, Caco-2, pH 7.4, with zosuquidar 5 µM; for Papp B→A at 2 h, 1 µM: Modified Caco-2, b to a, + PGPi (Zosuquidar), read-out: Modified Caco-2 Pba + PGPi (Zosuquidar)
In short: as §1

SMARCA2 = SMARCA2 (Homo sapiens, UniProt P51531); assay: SMARCA2 capillary electrophoresis protein assay in other cell lines (A549, NCI-H1568, HCT116, LU99, HCC-364, HCT-15, HCC4006, SK-N-AS); type: cell-based; set-up: endogenous in cells; host or cells: RKO, NCI-H1568, A549, HCT116, LU99, HCC-364, HCT-15, HCC4006, SK-N-AS
Chain of SMARCA2 (P51531 whole entry): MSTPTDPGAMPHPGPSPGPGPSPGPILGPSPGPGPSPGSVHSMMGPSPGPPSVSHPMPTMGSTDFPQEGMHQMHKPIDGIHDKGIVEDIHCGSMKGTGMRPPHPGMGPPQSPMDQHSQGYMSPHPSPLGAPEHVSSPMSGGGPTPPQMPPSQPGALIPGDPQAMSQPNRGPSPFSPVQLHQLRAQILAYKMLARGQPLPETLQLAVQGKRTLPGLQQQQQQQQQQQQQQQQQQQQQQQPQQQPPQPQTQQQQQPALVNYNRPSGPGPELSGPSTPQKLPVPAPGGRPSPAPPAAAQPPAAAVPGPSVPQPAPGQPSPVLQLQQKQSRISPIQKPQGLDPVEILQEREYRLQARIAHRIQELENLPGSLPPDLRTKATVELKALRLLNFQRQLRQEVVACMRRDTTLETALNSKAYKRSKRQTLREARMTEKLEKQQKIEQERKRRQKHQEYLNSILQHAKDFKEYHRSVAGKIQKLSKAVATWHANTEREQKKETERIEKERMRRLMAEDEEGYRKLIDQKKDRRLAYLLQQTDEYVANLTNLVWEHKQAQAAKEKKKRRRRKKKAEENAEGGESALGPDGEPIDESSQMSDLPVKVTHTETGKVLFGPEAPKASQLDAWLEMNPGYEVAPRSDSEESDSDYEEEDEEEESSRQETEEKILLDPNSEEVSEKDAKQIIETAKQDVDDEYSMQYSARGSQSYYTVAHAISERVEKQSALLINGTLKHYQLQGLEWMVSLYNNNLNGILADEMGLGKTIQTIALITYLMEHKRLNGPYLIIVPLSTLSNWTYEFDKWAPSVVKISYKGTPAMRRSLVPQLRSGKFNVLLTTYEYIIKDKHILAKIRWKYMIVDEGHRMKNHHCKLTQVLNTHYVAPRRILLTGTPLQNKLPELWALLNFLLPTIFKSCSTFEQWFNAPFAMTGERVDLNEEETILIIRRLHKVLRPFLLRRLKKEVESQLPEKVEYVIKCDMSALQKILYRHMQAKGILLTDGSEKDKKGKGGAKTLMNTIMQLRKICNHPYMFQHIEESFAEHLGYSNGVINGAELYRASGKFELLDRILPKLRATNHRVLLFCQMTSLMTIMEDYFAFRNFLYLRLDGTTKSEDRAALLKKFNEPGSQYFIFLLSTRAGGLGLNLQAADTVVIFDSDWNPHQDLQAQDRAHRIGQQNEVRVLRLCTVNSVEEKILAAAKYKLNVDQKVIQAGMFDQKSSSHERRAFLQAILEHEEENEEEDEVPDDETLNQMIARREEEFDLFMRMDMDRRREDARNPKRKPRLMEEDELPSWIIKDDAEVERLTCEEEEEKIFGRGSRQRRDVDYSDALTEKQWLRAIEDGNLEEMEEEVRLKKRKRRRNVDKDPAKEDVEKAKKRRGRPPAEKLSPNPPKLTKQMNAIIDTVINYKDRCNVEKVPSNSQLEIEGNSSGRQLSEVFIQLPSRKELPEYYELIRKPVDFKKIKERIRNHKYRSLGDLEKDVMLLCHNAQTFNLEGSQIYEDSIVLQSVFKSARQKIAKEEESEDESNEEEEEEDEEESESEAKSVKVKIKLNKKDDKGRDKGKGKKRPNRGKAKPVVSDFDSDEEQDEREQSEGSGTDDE
Method: 130,000–200,000 cells were seeded in 24-well plates and incubated until settled down or overnight. Compounds were dissolved in DMSO and added to cells in indicated concentrations using a digital dispenser following an optional media change. Cells were incubated for 4 or 18 h as indicated. For SMARCA2/4 half-life determination, 150,000 or 200,000 cells were seeded in 24-well plates. The next day, 50 µg/ml cycloheximide (Sigma) was added and cells were incubated for 1–24 h. For SMARCA2/4 re-synthesis measurements, 200,000 cells were seeded in 24-well plates. The next day, 100 nM compound 6 was added for 4 h to degrade SMARCA2/4, and a sample was taken as baseline for normalisation. To allow re-synthesis, a VHL binder (compound 32, 25 or 50 µM) was then added for 3 or 24 h. Medium was removed, cells were washed with PBS and lysed with 80 µl Lysis Buffer (MSD Tris Lysis Buffer (#R60TX-2) + Halt Inhibitor Cocktail (100x) + Benzonase 0.5 µL/ml). Samples were frozen at −80 °C and thawed at room temperature before use. Samples were transferred to a V-bottom plate and insoluble debris was pelleted by centrifugation for 5 min at maximum speed. The supernatant was transferred to a fresh plate. Master Mix and Ladder were prepared according to manufacturer’s instructions for 12–230 kDa Wes Separation Module, 8 × 25 capillary cartridges, Protein Simple #SM-W004 with Anti-Rabbit Detection Module for Wes, Peggy Sue or Sally Sue, Protein Simple #DM-001. 4.8 µl lysate were mixed with 1.2 µl Master Mix to achieve a protein concentration of ~0.5 µg/µl. Antibodies were diluted in Antibody Diluent II (SMARCA2 Sigma #HPA029981 RRID:AB_10602406 1:25–100, SMARCA4 Cell Signalling #49360 clone D1Q7F RRID:AB_2728743 1:15–120 or Abcam #ab110641 clone EPNCIR111A RRID:AB_10861578 1:60, GAPDH Abcam #ab9485 RRID:AB_307275 1:250). Wes plates were prepared and run according to manufacturer’s instructions. Proteins were quantified with accompanying Compass Software. SMARCA2/4 protein levels were normalised to GAPDH. […] Where applicable, curves were fitted using a 4-parametric logistic model.

[2] = bovine, 10% calf plasma dilution in PBS, 10% calf, fraction unbound, read-out: PPB fu 10% Calf
[3] = bovine, 10% plasma (plasma dilution in PBS), 10% calf, read-out: PPB fu 10% Calf
[4] = Caco-2, pH 7.4, Caco-2, read-out: Caco-2 Pab
[5] = Caco-2, pH 7.4, Modified Caco-2, read-out: Modified Caco-2 Pab
[6] = NCI-H1568 (4 h), mean ± SD, read-out: SMARCA2 DC50
[7] = NCI-H1568, 4h, individual replicates, read-out: NCI-H1568 (4h) SMARCA2 DC50

SMILES	PPB fu 10% Calf (Plasma protein binding; 10% calf) [%]	fraction unbound at 5 h, 3 µmol/L (Plasma protein binding; [2])	fraction unbound at 5 h, 3 µmol/L (Plasma protein binding; [3])	Papp A→B at 1 µM [1, 4] [×10⁻⁶ cm/s]	Papp A→B at 1 µM [1, 5] [×10⁻⁶ cm/s]	Papp B→A at 2 h, 1 µM (P-gp) [×10⁻⁶ cm/s]	Dmax (SMARCA2; NCI-H1568 (4 h), mean ± SD) [%]	DC50 (SMARCA2; [6]) [nM]	DC50 (SMARCA2; [7])	also measured
Cc1ncsc1-c1ccc([C@H](COC(C)CN2CCC(c3ccc4c(c3)n(C3CCCC3)c3nc(=O)c5c(Br)cccc5n43)CC2)NC(=O)[C@@H]2C[C@@H](O)CN2C(=O)[C@@H](NC(=O)C2(F)CC2)C(C)(C)C)cc1 (stereo partly drawn) [compound 9]	8.695	0.07 ± 0.02	0.0538	6 ± 2	4 ± 2	19	92 ± 8	32 ± 17	54.9 nM and 24.6 nM and 25.2 nM	Papp B→A at 1 µM ([1]; Caco-2, pH 7.4, Caco-2, b to a, read-out: Caco-2 Pba): 34 ×10⁻⁶ cm/s; Papp B→A at 1 µM ([1]; Caco-2, pH 7.4, Modified Caco-2, b to a, read-out: Modified Caco-2 Pba): 170 ×10⁻⁶ cm/s; efflux ratio at 2 h, 1 µM ([1]; Caco-2, pH 7.4, Modified Caco-2, read-out: Modified Caco-2 Efflux ratio): 44.8; Papp A→B at 1 µM (P-gp; Modified Caco-2 + PGPi (Zosuquidar), read-out: Modified Caco-2 + PGPi (Zosuquidar) Pab): 12 ± 2 ×10⁻⁶ cm/s
Cc1ncsc1-c1ccc([C@H](CCCCCN2CCC(c3ccc4c(c3)n(C3CCCC3)c3nc(=O)c5c(Br)cccc5n43)CC2)NC(=O)[C@@H]2C[C@@H](O)CN2C(=O)[C@@H](NC(=O)C2(F)CC2)C(C)(C)C)cc1 [compound 11]	0.136	0.0014	< 0.00092	1.4 ± 0.5	6 ± 3	24	90 ± 0.3	8 ± 4	5.2 nM and 13 nM and 6.7 nM	PPB fu 10% Human (Plasma protein binding; 10% human): < 0.043% and < 0.038%; PPB fu 10% Mouse (Plasma protein binding; 10% mouse): < 0.038% and < 0.228% and 1.281%; PPB fu 10% Rat (Plasma protein binding; 10% rat): < 0.044% and < 0.048%; fraction unbound at 5 h, 3 µmol/L (Plasma protein binding; human, 10% plasma (plasma dilution in PBS), 10% human, read-out: PPB fu 10% Human): < 0.00049; fraction unbound at 5 h, 3 µmol/L (Plasma protein binding; human, plasma, human, fraction unbound, read-out: PPB fu Human): < 0.0004; fraction unbound at 5 h, 3 µmol/L (Plasma protein binding; mouse, plasma, mouse, fraction unbound, read-out: PPB fu Mouse): < 0.0004; fraction unbound at 5 h, 3 µmol/L (Plasma protein binding; rat, 10% plasma (plasma dilution in PBS), 10% rat, read-out: PPB fu 10% Rat): < 0.00047; fraction unbound at 5 h, 3 µmol/L (Plasma protein binding; rat, plasma, rat, fraction unbound, read-out: PPB fu Rat): < 0.0004
